For 8 compounds, IC50 results are on record in patent US20120121591A1 (priority 2009, published 2012).

What all share (assay type): cell-based
In one assay the target is hKv1.3 (Homo sapiens, UniProt P22001). Nature of the assay: cell-based. As to conditions: Kv1.3 (IWQ) IC50 (nM, Avg).
Assay [1] deals with IFN-g secretion from T cells in human whole blood. To be noted: read-out: WB (IFNg) IC50 (nM, Avg).
Assay [2] has as its system IL-2 secretion from T cells in human whole blood. As to conditions: read-out: WB (IL-2) IC50 (nM, Avg).

Chain of hKv1.3 (P22001 whole entry): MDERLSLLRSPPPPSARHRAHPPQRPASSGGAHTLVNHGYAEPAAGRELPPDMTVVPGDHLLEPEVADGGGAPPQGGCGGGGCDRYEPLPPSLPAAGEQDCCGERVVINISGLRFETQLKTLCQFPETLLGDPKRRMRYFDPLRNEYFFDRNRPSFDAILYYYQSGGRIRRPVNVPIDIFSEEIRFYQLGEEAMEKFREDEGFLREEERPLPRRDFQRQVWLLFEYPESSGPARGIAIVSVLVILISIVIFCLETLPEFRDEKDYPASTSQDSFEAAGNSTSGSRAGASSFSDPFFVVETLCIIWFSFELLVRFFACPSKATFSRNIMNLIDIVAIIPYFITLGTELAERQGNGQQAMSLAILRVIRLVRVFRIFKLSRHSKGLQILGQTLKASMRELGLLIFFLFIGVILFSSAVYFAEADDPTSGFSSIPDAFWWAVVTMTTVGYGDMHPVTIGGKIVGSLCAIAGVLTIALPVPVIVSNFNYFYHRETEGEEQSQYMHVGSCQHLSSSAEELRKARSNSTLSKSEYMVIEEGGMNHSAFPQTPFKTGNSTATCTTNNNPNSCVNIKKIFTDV

Regarding `CC[C@H](C)[C@@H]1NC(=O)[C@@H](NC(=O)[C@H](CO)NC(=O)[C@@H](N)CCCNC(=N)N)CSSC[C@@H](C(=O)O)NC(=O)[C@H]([C@@H](C)O)NC(=O)CNC(=O)[C@@H]2CSSC[C@@H]3NC(=O)[C@H](CCC(N)=O)NC(=O)[C@H](Cc4cccc5ccccc45)NC(=O)[C@H](C)NC(=O)[C@H]([C@@H](C)O)NC(=O)[C@H](CSSC[C@H](NC(=O)[C@H](Cc4ccccc4)NC(=O)[C@H](CO)NC(=O)[C@H](CC(C)C)NC(=O)[C@H](CCCNC(=N)N)NC(=O)[C@H](Cc4ccc(O)cc4)NC(=O)[C@H](CCCCN)NC(=O)[C@H](CCSC)NC(=O)[C@H](CO)NC(=O)[C@H](Cc4c[nH]cn4)NC(=O)[C@H](CCCCN)NC3=O)C(=O)N[C@@H](CCCNC(=N)N)C(=O)N[C@@H](CCCCN)C(=O)N[C@@H]([C@@H](C)O)C(=O)N2)NC(=O)[C@H](CCCNC(=N)N)NC(=O)[C@H](CO)NC(=O)[C@H](CCCCN)NC(=O)[C@@H]2CCCN2C(=O)[C@H]([C@@H](C)CC)NC(=O)[C@H]([C@@H](C)O)NC(=O)[C@H](CC(=O)O)NC1=O` [[1-Nal15]ShK], the half-inhibitory concentration (IC50) against hKv1.3 worked out at 0.072 nM; in assay [1], 0.291 nM; in assay [2], 0.184 nM.

Take `CC[C@H](C)[C@@H]1NC(=O)[C@@H](NC(=O)[C@H](CO)NC(=O)[C@@H](N)CCCNC(=N)N)CSSC[C@@H](C(=O)O)NC(=O)[C@H]([C@@H](C)O)NC(=O)CNC(=O)[C@@H]2CSSC[C@@H]3NC(=O)[C@H](Cc4cccc5ccccc45)NC(=O)[C@H](Cc4ccccc4)NC(=O)[C@H](C)NC(=O)[C@H]([C@@H](C)O)NC(=O)[C@H](CSSC[C@H](NC(=O)[C@H](Cc4ccccc4)NC(=O)[C@H](CO)NC(=O)[C@H](CC(C)C)NC(=O)[C@H](CCCNC(=N)N)NC(=O)[C@H](Cc4ccc(O)cc4)NC(=O)[C@H](CCCCN)NC(=O)[C@H](CCSC)NC(=O)[C@H](CO)NC(=O)[C@H](Cc4c[nH]cn4)NC(=O)[C@H](CCCCN)NC3=O)C(=O)N[C@@H](CCCNC(=N)N)C(=O)N[C@@H](CCCCN)C(=O)N[C@@H]([C@@H](C)O)C(=O)N2)NC(=O)[C@H](CCCNC(=N)N)NC(=O)[C@H](CO)NC(=O)[C@H](CCCCN)NC(=O)[C@@H]2CCCN2C(=O)[C@H]([C@@H](C)CC)NC(=O)[C@H]([C@@H](C)O)NC(=O)[C@H](CC(=O)O)NC1=O` [[1-Nal16]ShK]: the figures for the IC50 (against hKv1.3; in assay [1]; in assay [2]) were 0.699 nM, 9.55 nM and 28.9 nM, respectively.

Take `CC[C@H](C)[C@@H]1NC(=O)[C@@H](NC(=O)[C@H](CO)NC(=O)[C@@H](N)CCCNC(=N)N)CSSC[C@@H](C(=O)O)NC(=O)[C@H]([C@@H](C)O)NC(=O)CNC(=O)[C@@H]2CSSC[C@@H]3NC(=O)[C@H](CCC(N)=O)NC(=O)[C@H](Cc4ccccc4)NC(=O)[C@H](C)NC(=O)[C@H]([C@@H](C)O)NC(=O)[C@H](CSSC[C@H](NC(=O)[C@H](Cc4ccccc4)NC(=O)[C@H](CO)NC(=O)[C@H](CC(C)C)NC(=O)[C@H](CCCNC(=N)N)NC(=O)[C@H](Cc4ccc(O)cc4)NC(=O)[C@H](CCCCN)NC(=O)[C@H](CCSC)NC(=O)[C@H](CO)NC(=O)[C@H](Cc4c[nH]cn4)NC(=O)[C@H](Cc4cccc5ccccc45)NC3=O)C(=O)N[C@@H](CCCNC(=N)N)C(=O)N[C@@H](CCCCN)C(=O)N[C@@H]([C@@H](C)O)C(=O)N2)NC(=O)[C@H](CCCNC(=N)N)NC(=O)[C@H](CO)NC(=O)[C@H](CCCCN)NC(=O)[C@@H]2CCCN2C(=O)[C@H]([C@@H](C)CC)NC(=O)[C@H]([C@@H](C)O)NC(=O)[C@H](CC(=O)O)NC1=O` [[1-Nal18]ShK]: the IC50 was determined as 0.471 nM on hKv1.3, 0.375 nM in assay [1] and 0.419 nM in assay [2].

`CC[C@H](C)[C@@H]1NC(=O)[C@@H](NC(=O)[C@H](CO)NC(=O)[C@@H](N)CCCNC(=N)N)CSSC[C@@H](C(=O)O)NC(=O)[C@H]([C@@H](C)O)NC(=O)CNC(=O)[C@@H]2CSSC[C@@H]3NC(=O)[C@H](CCC(N)=O)NC(=O)[C@H](Cc4ccccc4)NC(=O)[C@H](C)NC(=O)[C@H]([C@@H](C)O)NC(=O)[C@H](CSSC[C@H](NC(=O)[C@H](Cc4ccccc4)NC(=O)[C@H](CO)NC(=O)[C@H](CC(C)C)NC(=O)[C@H](CCCNC(=N)N)NC(=O)[C@H](Cc4ccc(O)cc4)NC(=O)[C@H](CCCCN)NC(=O)[C@H](CCSC)NC(=O)[C@H](CO)NC(=O)[C@H](Cc4cccc5ccccc45)NC(=O)[C@H](CCCCN)NC3=O)C(=O)N[C@@H](CCCNC(=N)N)C(=O)N[C@@H](CCCCN)C(=O)N[C@@H]([C@@H](C)O)C(=O)N2)NC(=O)[C@H](CCCNC(=N)N)NC(=O)[C@H](CO)NC(=O)[C@H](CCCCN)NC(=O)[C@@H]2CCCN2C(=O)[C@H]([C@@H](C)CC)NC(=O)[C@H]([C@@H](C)O)NC(=O)[C@H](CC(=O)O)NC1=O` [[1-Nal19]ShK]: the IC50 at hKv1.3 stood at 0.277 nM; in assay [1], 0.255 nM; in assay [2], 0.153 nM.

For `CC[C@H](C)[C@@H]1NC(=O)[C@@H](NC(=O)[C@H](CO)NC(=O)[C@@H](N)CCCNC(=N)N)CSSC[C@@H](C(=O)O)NC(=O)[C@H]([C@@H](C)O)NC(=O)CNC(=O)[C@@H]2CSSC[C@@H]3NC(=O)[C@H](CCC(N)=O)NC(=O)[C@H](Cc4ccccc4)NC(=O)[C@H](C)NC(=O)[C@H]([C@@H](C)O)NC(=O)[C@H](CSSC[C@H](NC(=O)[C@H](Cc4ccccc4)NC(=O)[C@H](CO)NC(=O)[C@H](CC(C)C)NC(=O)[C@H](CCCNC(=N)N)NC(=O)[C@H](Cc4ccc(O)cc4)NC(=O)[C@H](CCCCN)NC(=O)[C@H](Cc4cccc5ccccc45)NC(=O)[C@H](CO)NC(=O)[C@H](Cc4c[nH]cn4)NC(=O)[C@H](CCCCN)NC3=O)C(=O)N[C@@H](CCCNC(=N)N)C(=O)N[C@@H](CCCCN)C(=O)N[C@@H]([C@@H](C)O)C(=O)N2)NC(=O)[C@H](CCCNC(=N)N)NC(=O)[C@H](CO)NC(=O)[C@H](CCCCN)NC(=O)[C@@H]2CCCN2C(=O)[C@H]([C@@H](C)CC)NC(=O)[C@H]([C@@H](C)O)NC(=O)[C@H](CC(=O)O)NC1=O` [[1-Nal21]ShK], the figures for the IC50 (at hKv1.3; in assay [1]; in assay [2]) were 0.669 nM, 8.13 nM and 6.59 nM, respectively.

For `CC[C@H](C)[C@@H]1NC(=O)[C@@H](NC(=O)[C@H](CO)NC(=O)[C@@H](N)CCCNC(=N)N)CSSC[C@@H](C(=O)O)NC(=O)[C@H]([C@@H](C)O)NC(=O)CNC(=O)[C@@H]2CSSC[C@@H]3NC(=O)[C@H](CCC(N)=O)NC(=O)[C@H](Cc4ccccc4)NC(=O)[C@H](C)NC(=O)[C@H]([C@@H](C)O)NC(=O)[C@H](CSSC[C@H](NC(=O)[C@H](Cc4ccccc4)NC(=O)[C@H](CO)NC(=O)[C@H](Cc4cccc5ccccc45)NC(=O)[C@H](CCCNC(=N)N)NC(=O)[C@H](Cc4ccc(O)cc4)NC(=O)[C@H](CCCCN)NC(=O)[C@H](CCSC)NC(=O)[C@H](CO)NC(=O)[C@H](Cc4c[nH]cn4)NC(=O)[C@H](CCCCN)NC3=O)C(=O)N[C@@H](CCCNC(=N)N)C(=O)N[C@@H](CCCCN)C(=O)N[C@@H]([C@@H](C)O)C(=O)N2)NC(=O)[C@H](CCCNC(=N)N)NC(=O)[C@H](CO)NC(=O)[C@H](CCCCN)NC(=O)[C@@H]2CCCN2C(=O)[C@H]([C@@H](C)CC)NC(=O)[C@H]([C@@H](C)O)NC(=O)[C@H](CC(=O)O)NC1=O` [[1-Nal25]ShK], the IC50 on hKv1.3 was determined as 0.106 nM; in assay [1] it was 0.084 nM; in assay [2], 0.061 nM.

Take `CC[C@H](C)[C@@H]1NC(=O)[C@@H](NC(=O)[C@H](CO)NC(=O)[C@@H](N)CCCNC(=N)N)CSSC[C@@H](C(=O)O)NC(=O)[C@H]([C@@H](C)O)NC(=O)CNC(=O)[C@@H]2CSSC[C@@H]3NC(=O)[C@H](CCC(N)=O)NC(=O)[C@H](Cc4ccccc4)NC(=O)[C@H](C)NC(=O)[C@H]([C@@H](C)O)NC(=O)[C@H](CSSC[C@H](NC(=O)[C@H](Cc4cccc5ccccc45)NC(=O)[C@H](CO)NC(=O)[C@H](CC(C)C)NC(=O)[C@H](CCCNC(=N)N)NC(=O)[C@H](Cc4ccc(O)cc4)NC(=O)[C@H](CCCCN)NC(=O)[C@H](CCSC)NC(=O)[C@H](CO)NC(=O)[C@H](Cc4c[nH]cn4)NC(=O)[C@H](CCCCN)NC3=O)C(=O)N[C@@H](CCCNC(=N)N)C(=O)N[C@@H](CCCCN)C(=O)N[C@@H]([C@@H](C)O)C(=O)N2)NC(=O)[C@H](CCCNC(=N)N)NC(=O)[C@H](CO)NC(=O)[C@H](CCCCN)NC(=O)[C@@H]2CCCN2C(=O)[C@H]([C@@H](C)CC)NC(=O)[C@H]([C@@H](C)O)NC(=O)[C@H](CC(=O)O)NC1=O` [[1-Nal27]ShK]: the values for the IC50 (against hKv1.3; in assay [1]; in assay [2]) were 0.144 nM, 2.84 nM and 1.07 nM, respectively.

`CC[C@H](C)[C@@H]1NC(=O)[C@@H](NC(=O)[C@H](CO)NC(=O)[C@@H](N)CCCNC(=N)N)CSSC[C@@H](C(=O)O)NC(=O)[C@H]([C@@H](C)O)NC(=O)CNC(=O)[C@@H]2CSSC[C@@H]3NC(=O)[C@H](CCC(N)=O)NC(=O)[C@H](Cc4ccccc4)NC(=O)[C@H](C)NC(=O)[C@H]([C@@H](C)O)NC(=O)[C@H](CSSC[C@H](NC(=O)[C@H](Cc4ccccc4)NC(=O)[C@H](CO)NC(=O)[C@H](CC(C)C)NC(=O)[C@H](CCCNC(=N)N)NC(=O)[C@H](Cc4ccc(O)cc4)NC(=O)[C@H](CCCCN)NC(=O)[C@H](CCSC)NC(=O)[C@H](CO)NC(=O)[C@H](Cc4c[nH]cn4)NC(=O)[C@H](CCCCN)NC3=O)C(=O)N[C@@H](Cc3cccc4ccccc34)C(=O)N[C@@H](CCCCN)C(=O)N[C@@H]([C@@H](C)O)C(=O)N2)NC(=O)[C@H](CCCNC(=N)N)NC(=O)[C@H](CO)NC(=O)[C@H](CCCCN)NC(=O)[C@@H]2CCCN2C(=O)[C@H]([C@@H](C)CC)NC(=O)[C@H]([C@@H](C)O)NC(=O)[C@H](CC(=O)O)NC1=O` [[1-Nal29]ShK]: the IC50 against hKv1.3 is 3.3 nM; in assay [1] it was 8.08 nM; in assay [2], 4.72 nM.

The IC50 is the concentration needed to halve the response being measured.
